US20260285850A1, “SUBSTITUTED OXAZOLIDINONES AND IMIDAZOLINONES AS HERBICIDES” (FMC CORPORATION, priority 2023, published 2026)

What was measured:
Format in all cases: in vivo
[1] = test system: ducksalad (Heteranthera limosa); assay: Test B flooded paddy test, visual plant response rating 0-100; details: 250 g ai/ha, Flood, applied to paddy water, evaluated after 13 days
Method in brief: (§1)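 Paddy-water application: test compounds went directly into water flooded 3 cm above the soil surface, with plants at 2 leaves. After a 13-day greenhouse period, responses were judged by eye relative to controls; a dash marks an untested entry.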

[2] = test system: rice (Oryza sativa); assay: as above; details: 250 g ai/ha, Flood, applied to paddy water, evaluated after 13 days
Method in brief: as §1

[3] = test system: barnyardgrass (Echinochloa crusgalli); assay: as above; details: 250 g ai/ha, Flood, applied to paddy water, evaluated after 13 days
Method in brief: as §1

[4] = test system: sedge, umbrella (small-flower umbrella sedge, Cyperus difformis); assay: as above; details: 250 g ai/ha, Flood, applied to paddy water, evaluated after 13 days
Method in brief: as §1

[5] = test system: palmer (palmer amaranth, palmer pigweed, Amaranthus palmeri); assay: Test A preemergence soil spray, visual injury rating 0-100; details: 10 days
Method in brief: (§2)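 Preemergence directed soil spray or postemergence spray (2-10 cm, 1-2 leaf); loam/sand mix; compound in non-phytotoxic solvent + surfactant. Greenhouse, 10 d. Visual injury vs untreated, 0 = none, 100 = complete control.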

[6] = test system: ragweed (common ragweed, Ambrosia artemisiifolia); assay: as above; details: 10 days; for Ragweed plant response rating: 0 to 100 scale
Method in brief: as §2

[7] = test system: corn (Zea mays); assay: as above; details: 10 days; for Corn plant response rating: 0 to 100 scale
Method in brief: as §2

[8] = test system: oat, wild (wild oat, Avena fatua); assay: as above; details: 10 days; for Oat, Wild plant response rating: 0 to 100 scale
Method in brief: as §2

[9] = test system: green foxtail (Setaria viridis); assay: as above; details: 10 days; for Foxtail, Green plant response rating: 0 to 100 scale
Method in brief: as §2

[10] = test system: ryegrass, Italian (italian ryegrass, Lolium multiflorum); assay: as above; details: 10 days; for Ryegrass, Italian plant response rating: 0 to 100 scale
Method in brief: as §2

[11] = test system: blackgrass (Alopecurus myosuroides); assay: as above; details: 10 days; for Blackgrass plant response rating: 0 to 100 scale
Method in brief: as §2

[12] = test system: barnyardgrass (Echinochloa crus-galli); assay: as above; details: 10 days; for Barnyardgrass plant response rating: 0 to 100 scale
Method in brief: as §2

[13] = test system: soybean (Glycine max); assay: as above; details: 10 days; for Soybean plant response rating: 0 to 100 scale
Method in brief: as §2

[14] = test system: kochia (Bassia scoparia); assay: as above; details: 10 days; for Kochia plant response rating: 0 to 100 scale
Method in brief: as §2

[15] = test system: wheat (Triticum aestivum); assay: as above; details: 10 days; for Wheat plant response rating: 0 to 100 scale
Method in brief: as §2

[16] = test system: palmer (palmer amaranth, palmer pigweed, Amaranthus palmeri); assay: Test A postemergence application, visual injury rating 0-100; details: Postemergence
Method in brief: as §2

[17] = test system: ragweed (common ragweed, Ambrosia artemisiifolia); assay: as above; details: Postemergence
Method in brief: as §2

[18] = test system: corn (Zea mays); assay: as above; details: Postemergence
Method in brief: as §2

[19] = test system: oat, wild (wild oat, Avena fatua); assay: as above; details: Postemergence
Method in brief: as §2

[20] = test system: green foxtail (Setaria viridis); assay: as above; details: Postemergence
Method in brief: as §2

[21] = test system: ryegrass, Italian (italian ryegrass, Lolium multiflorum); assay: as above; details: Postemergence
Method in brief: as §2

[22] = test system: blackgrass (Alopecurus myosuroides); assay: as above; details: Postemergence
Method in brief: as §2

[23] = test system: barnyardgrass (Echinochloa crus-galli); assay: as above; details: Postemergence
Method in brief: as §2

[24] = test system: soybean (Glycine max); assay: as above; details: Postemergence
Method in brief: as §2

[25] = test system: galium (catchweed bedstraw, Galium aparine); assay: as above; details: Postemergence
Method in brief: as §2

[26] = test system: horseweed (Erigeron canadensis); assay: as above; details: Postemergence
Method in brief: as §2

[27] = test system: kochia (Bassia scoparia); assay: as above; details: Postemergence
Method in brief: as §2

[28] = test system: wheat (Triticum aestivum); assay: as above; details: Postemergence
Method in brief: as §2

[29] = 31 g ai/ha, 0 = no effect, 100 = complete control
[30] = 125 g ai/ha, 0 = no effect, 100 = complete control
[31] = 31 g ai/ha, greenhouse 10 days, 0 no effect, 100 complete control
[32] = 125 g ai/ha, 10 days, 0 is no effect, 100 is complete control
[33] = 8 g ai/ha, 10 days, 0 is no effect, 100 is complete control

## CC(=O)COC(=O)C1C=CC(NC(=O)C2(C)CN(c3cc(Cl)cc(Cl)c3)C(=O)O2)C1 (centres unmarked) [Compound 67]
[1]
  Plant response rating, Ducksalad (0 to 100 scale, 0 is no effect and 100 is complete control): 98
[2]
  Plant response rating, Rice (0 to 100 scale, 0 is no effect and 100 is complete control): 30
[3]
  Plant response rating, Barnyardgrass (0 to 100 scale, 0 is no effect and 100 is complete control): 65
[4]
  Plant response rating, Sedge, Umbrella (0 to 100 scale, 0 is no effect and 100 is complete control): 100
[5]; [29]
  Amaranth, Palmer plant response rating (0-100): 90
[5]; [30]
  Amaranth, Palmer plant response rating (0 to 100 scale): 100
[6]; [29]
  Ragweed plant response rating (0-100): 0
[6]; [30]
  Ragweed plant response rating (0 to 100 scale): 60
[7]; [29]
  Corn plant response rating (0-100): 0
[7]; [30]
  Corn plant response rating (0 to 100 scale): 70
[8]; [29]
  Oat, Wild plant response rating (0-100): 40
[8]; [30]
  Oat, Wild plant response rating (0 to 100 scale): 70
[9]; [29]
  Foxtail, Green plant response rating (0-100): 20
[9]; [30]
  Foxtail, Green plant response rating (0 to 100 scale): 90
[10]; [29]
  Ryegrass, Italian plant response rating (0-100): 70
[10]; [30]
  Ryegrass, Italian plant response rating (0 to 100 scale): 80
[11]; [29]
  Blackgrass plant response rating (0-100): 20
[11]; [30]
  Blackgrass plant response rating (0 to 100 scale): 70
[12]; [29]
  Barnyardgrass plant response rating (0-100): 50
[12]; [30]
  Barnyardgrass plant response rating (0 to 100 scale): 90
[13]; [29]
  Soybean plant response rating (0-100): 0
[13]; [30]
  Soybean plant response rating (0 to 100 scale): 30
[14]; [29]
  Kochia plant response rating (0-100): 70
[14]; [30]
  Kochia plant response rating (0 to 100 scale): 80
[15]; [29]
  Wheat plant response rating (0-100): 30
[15]; [30]
  Wheat plant response rating (0 to 100 scale): 90
[16]; [31]
  Amaranth, Palmer / Pigweed, Palmer plant response rating (0 to 100 scale): 80
[16]; [32]
  Amaranth, Palmer / Pigweed, Palmer plant response rating (0 to 100 scale): 90
[17]; [31]
  Ragweed plant response rating (0 to 100 scale): 50
[17]; [32]
  Ragweed plant response rating (0 to 100 scale): 80
[18]; [31]
  Corn plant response rating (0 to 100 scale): 100
[18]; [32]
  Corn plant response rating (0 to 100 scale): 100
[19]; [31]
  Oat, Wild plant response rating (0 to 100 scale): 90
[19]; [32]
  Oat, Wild plant response rating (0 to 100 scale): 90
[20]; [31]
  Foxtail, Green plant response rating (0 to 100 scale): 90
[20]; [32]
  Foxtail, Green plant response rating (0 to 100 scale): 90
[21]; [31]
  Ryegrass, Italian plant response rating (0 to 100 scale): 70
[21]; [32]
  Ryegrass, Italian plant response rating (0 to 100 scale): 90
[22]; [31]
  Blackgrass plant response rating (0 to 100 scale): 90
[22]; [32]
  Blackgrass plant response rating (0 to 100 scale): 100
[23]; [31]
  Barnyardgrass plant response rating (0 to 100 scale): 100
[23]; [32]
  Barnyardgrass plant response rating (0 to 100 scale): 100
[24]; [31]
  Soybean plant response rating (0 to 100 scale): 80
[24]; [32]
  Soybean plant response rating (0 to 100 scale): 80
[25]; [31]
  Galium plant response rating (0 to 100 scale): 80
[25]; [32]
  Galium plant response rating (0 to 100 scale): 90
[26]; [31]
  Horseweed plant response rating (0 to 100 scale): 50
[26]; [32]
  Horseweed plant response rating (0 to 100 scale): 70
[27]; [31]
  Kochia plant response rating (0 to 100 scale): 70
[27]; [32]
  Kochia plant response rating (0 to 100 scale): 70
[28]; [31]
  Wheat plant response rating (0 to 100 scale): 90
[28]; [32]
  Wheat plant response rating (0 to 100 scale): 90

## CC1(C(=O)NC2C=CC(C(=O)NS(=O)(=O)C3CC3)C2)CN(c2cc(F)cc(F)c2)C(=O)O1 (centres unmarked) [Compound 87]
[1]
  Plant response rating, Ducksalad (0 to 100 scale, 0 is no effect and 100 is complete control): 0
[2]
  Plant response rating, Rice (0 to 100 scale, 0 is no effect and 100 is complete control): 0
[3]
  Plant response rating, Barnyardgrass (0 to 100 scale, 0 is no effect and 100 is complete control): 0
[4]
  Plant response rating, Sedge, Umbrella (0 to 100 scale, 0 is no effect and 100 is complete control): 0
[5]; 8 g ai/ha, 0 to 100 scale
  Pigweed, Palmer plant response rating: 10
[5]; 31 g ai/ha, 0 to 100 scale
  Amaranth, Palmer (Pigweed, Palmer) plant response rating: 90
[6]; 8 g ai/ha
  Ragweed plant response rating: 10
[6]; 31 g ai/ha
  Ragweed plant response rating: 10
[7]; 8 g ai/ha
  Corn plant response rating: 0
[7]; 31 g ai/ha
  Corn plant response rating: 0
[8]; 8 g ai/ha
  Oat, Wild plant response rating: 0
[8]; 31 g ai/ha
  Oat, Wild plant response rating: 0
[9]; 8 g ai/ha
  Foxtail, Green plant response rating: 30
[9]; 31 g ai/ha
  Foxtail, Green plant response rating: 20
[10]; 8 g ai/ha
  Ryegrass, Italian plant response rating: 0
[10]; 31 g ai/ha
  Ryegrass, Italian plant response rating: 30
[11]; 8 g ai/ha
  Blackgrass plant response rating: 10
[11]; 31 g ai/ha
  Blackgrass plant response rating: 20
[12]; 8 g ai/ha
  Barnyardgrass plant response rating: 0
[12]; 31 g ai/ha
  Barnyardgrass plant response rating: 90
[13]; 8 g ai/ha
  Soybean plant response rating: 0
[13]; 31 g ai/ha
  Soybean plant response rating: 0
[14]; 8 g ai/ha
  Kochia plant response rating: 0
[14]; 31 g ai/ha
  Kochia plant response rating: 10
[15]; 8 g ai/ha
  Wheat plant response rating: 0
[15]; 31 g ai/ha
  Wheat plant response rating: 20
[16]; [33]
  Pigweed, Palmer plant response rating (0 to 100 scale): 30
[16]; [31]
  Amaranth, Palmer / Pigweed, Palmer plant response rating (0 to 100 scale): 70
[17]; [33]
  Ragweed plant response rating (0 to 100 scale): 10
[17]; [31]
  Ragweed plant response rating (0 to 100 scale): 50
[18]; [33]
  Corn plant response rating (0 to 100 scale): 0
[18]; [31]
  Corn plant response rating (0 to 100 scale): 80
[19]; [33]
  Oat, Wild plant response rating (0 to 100 scale): 20
[19]; [31]
  Oat, Wild plant response rating (0 to 100 scale): 90
[20]; [33]
  Foxtail, Green plant response rating (0 to 100 scale): 0
[20]; [31]
  Foxtail, Green plant response rating (0 to 100 scale): 40
[21]; [33]
  Ryegrass, Italian plant response rating (0 to 100 scale): 20
[21]; [31]
  Ryegrass, Italian plant response rating (0 to 100 scale): 50
[22]; [33]
  Blackgrass plant response rating (0 to 100 scale): 0
[22]; [31]
  Blackgrass plant response rating (0 to 100 scale): 30
[23]; [33]
  Barnyardgrass plant response rating (0 to 100 scale): 50
[23]; [31]
  Barnyardgrass plant response rating (0 to 100 scale): 100
[24]; [33]
  Soybean plant response rating (0 to 100 scale): 20
[24]; [31]
  Soybean plant response rating (0 to 100 scale): 50
[25]; [33]
  Galium plant response rating (0 to 100 scale): 50
[25]; [31]
  Galium plant response rating (0 to 100 scale): 70
[26]; [33]
  Horseweed plant response rating (0 to 100 scale): 20
[26]; [31]
  Horseweed plant response rating (0 to 100 scale): 30
[27]; [33]
  Kochia plant response rating (0 to 100 scale): 30
[27]; [31]
  Kochia plant response rating (0 to 100 scale): 80
[28]; [33]
  Wheat plant response rating (0 to 100 scale): 0
[28]; [31]
  Wheat plant response rating (0 to 100 scale): 100
